# Data from US6875760B2 (Novo Nordisk A/S, priority 1999, dated 2005).
# Target: T1, cloned human glucagon receptor (Homo sapiens, UniProt P47871)
# T1 construct: expressed in transfected cells; plasma membrane preparation
# Assay: Glucagon Binding Assay (II)
# Conditions: plasma membranes of BHK cells expressing the receptor; read-out: Glu Bd Assay (II) IC50
# Experimental: Binding of compounds to the glucagon receptor was determined in a competition binding assay using the cloned human glucagon receptor.
# The receptor inserted in the pLJ6′ expression vector using EcoRI/SSt1 restriction sites (Lok et al.) was expressed in a baby hamster kidney cell line (A3 BHK 570-25).
# The homogenate was resuspended and centrifuged again. The final precipitate containing the plasma membranes was suspended in buffer and stored at −80° C. until use.
# Binding assays were carried out in duplicate in polypropylene tubes or microtiter plates. The buffer used in this assay was 50 mM HEPES pH 7.4 containing 5 mM EGTA, 5 mM MgCl2 and 0.005% Tween 20. Sample (glucagon (Bachem CA) or test compounds) was added to each tube or well. Tracer (˜25.000 cpm) was diluted in buffer and was added to each tube or well. 0.5 mg freshly thawed plasma membrane protein diluted in buffer was then added in aliquots to each tube or well. Tubes or plates were incubated at 37° C. for 1 hour. Non-specific binding was determined with 10^−7 M of glucagon. Bound tracer and unbound tracer were then separated by vacuum filtration. The tubes or wells were washed twice with 0.01% Triton X-100 buffer. Scintillation fluid was added to the plates and radioactivity was quantified using a scintillation counter.
# T1 sequence (P47871 26-477): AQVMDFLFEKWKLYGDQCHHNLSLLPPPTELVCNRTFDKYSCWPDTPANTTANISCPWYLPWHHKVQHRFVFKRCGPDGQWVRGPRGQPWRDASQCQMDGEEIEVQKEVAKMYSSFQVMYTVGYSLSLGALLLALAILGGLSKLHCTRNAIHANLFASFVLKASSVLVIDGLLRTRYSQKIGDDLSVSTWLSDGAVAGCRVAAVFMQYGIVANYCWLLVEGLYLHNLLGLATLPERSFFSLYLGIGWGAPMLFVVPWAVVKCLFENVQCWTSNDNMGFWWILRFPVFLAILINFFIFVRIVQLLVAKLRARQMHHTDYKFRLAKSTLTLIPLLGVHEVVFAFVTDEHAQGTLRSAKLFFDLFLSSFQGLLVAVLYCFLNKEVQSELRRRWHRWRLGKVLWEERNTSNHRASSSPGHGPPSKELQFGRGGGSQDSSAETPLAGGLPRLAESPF
row,IC50,Compound
1,360 nM,"O=C(O)CCNC(=O)c1ccc(CN(C(=O)Nc2ccc(OC(F)(F)F)cc2)C2Cc3ccccc3C2)cc1 [Example 137, 3-{4-[1-(1-Indan-2-yl)-3-(4-trifluoromethoxyphenyl)ureidomethyl]benzoylamino)propionic acid]"
2,637 nM,"O=C(O)CCNC(=O)c1ccc(CN(C(=O)Nc2cc(Cl)cc(Cl)c2)C2Cc3ccccc3C2)cc1 [Example 138, 3-{4-[1-Indan-2-yl-3-(3,5-dichlorophenyl)ureidomethyl]benzoylamino}propionic acid]"
3,379 nM,"C[C@@H](C1CCCCC1)N(Cc1ccc(C(=O)NCCC(=O)O)cc1)C(=O)Nc1ccc(OC(F)(F)F)cc1 [Example 139, 3-{4-[1-((1S)-1-Cyclohexylethyl)-3-(4-trifluoromethoxyphenyl)ureidomethyl]benzoylamino)propionic acid]"
4,574 nM,"C[C@@H](C1CCCCC1)N(Cc1ccc(C(=O)NCCC(=O)O)cc1)C(=O)Nc1cc(Cl)cc(Cl)c1 [Example 140, 3-{4-[1-((1S)-1-Cyclohexylethyl)-3-(3,5-dichlorophenyl)ureidomethyl]benzoylamino)propionic acid]"
5,454 nM,Cc1ccc(CN(CCc2ccc(Cl)cc2Cl)Cc2ccc(C(=O)NCCC(=O)O)cc2)cc1 [Example 153]
6,167 nM,"O=C(O)CCNC(=O)c1ccc(CN(Cc2cccc(Cl)c2)Cc2cccc(Cl)c2)cc1 [Example 154, 3-(4-{[Bis-(3-chlorobenzyl)amino]methyl}benzoylamino)propionic acid]"
7,823 nM,"O=C(O)CCNC(=O)c1ccc(CN(CCC(c2ccccc2)c2ccccc2)Cc2ccc3c(c2)OCO3)cc1 [Example 155, 3-(4-{[(3,3-Diphenylpropyl)-(3,4-methylenedioxybenzyl)amino]methyl}benzoylamino)propionic acid]"
8,146 nM,"CC(C)(C)C1CCC(N(Cc2ccc(C(=O)NCCc3nnn[nH]3)cc2)C(=O)Nc2ccc(OC(F)(F)F)cc2)CC1 (stereo not shown) [Example 156, 4-[1-(4-tert-Butylcyclohexyl)-3-(4-trifluoromethoxyphenyl)ureidomethyl]-N-[2-(1H-tetrazol-5-yl)ethyl]benzamide]"
9,250 nM,"CC(C)(C)C1CCC(N(Cc2ccc(C(=O)NCCc3nnn[nH]3)cc2)C(=O)Nc2cc(Cl)cc(Cl)c2)CC1 (stereo not shown) [Example 157, 4-[1-(4-tert-Butylcyclohexyl)-3-(3,5-dichlorophenyl)ureidomethyl]-N-[2-(1H-tetrazol-5-yl)ethyl]benzamide]"
10,7 nM,"CC(C)(C)[C@H]1CC[C@H](N(Cc2ccc(C(=O)Nc3nn[nH]n3)cc2)C(=O)Nc2ccc(OC(F)(F)F)cc2)CC1 [Example 158, 4-[1-(trans-4-tert-Butylcyclohexyl)-3-(4-trifluoromethoxyphenyl)ureidomethyl]-N-(2H-tetrazol-5-yl)benzamide]"

# Same assay, conditions: screened at 1 μM; library compounds; read-out: displacement of the glucagon tracer when screened at 1 μM concentration in the glucagon binding assay II
row,inhibition at 1 µM,Compound
1,> 50%,"CC(C)(C)C1CCC(N(Cc2cccc(C(=O)NCCC(=O)O)c2)C(=O)Nc2ccc(OC(F)(F)F)cc2)CC1 (stereo not shown) [Example 134, 3-{3-[1-(4-tert-Butylcyclohexyl)-3-(4-trifluoromethoxyphenyl)ureidomethyl]benzoylamino)propionic acid]"
2,> 50%,"CC(C)(C)C1CCC(N(Cc2cccc(C(=O)NCCC(=O)O)c2)C(=O)Nc2cc(Cl)cc(Cl)c2)CC1 (stereo not shown) [Example 135, 3-{3-[1-(4-tert-Butylcyclohexyl)-3-(3,5-dichlorophenyl)ureidomethyl]benzoylamino)propionic acid]"
3,> 50%,"O=C(O)CCNC(=O)c1ccc(CN(CCC(c2ccccc2)c2ccccc2)Cc2ccc(C(F)(F)F)cc2)cc1 [Example 141, 3-(4-{[(3,3-Diphenylpropyl)-(4-trifluoromethylbenzyl)amino]methyl}benzoylamino)propionic acid]"
4,> 50%,"O=C(O)CCNC(=O)c1ccc(CN(CCC(c2ccccc2)c2ccccc2)Cc2ccc(C(F)(F)F)cc2)s1 [Example 142, 3-(5-{[(3,3-Diphenylpropyl)-(4-trifluoromethylbenzyl)amino]methyl}thiophene-2-carbonylamino)propionic acid]"
5,> 50%,"O=C(O)CCNC(=O)c1ccc(CN(Cc2ccccc2Cl)CC(c2ccccc2)c2ccccc2)cc1 [Example 143, 3-(4-{[(2,2-Diphenylethyl)-(2-chlorobenzyl)amino]methyl}benzoylamino)propionic acid]"
6,> 50%,"O=C(O)CCNC(=O)c1ccc(CN(Cc2ccccc2Cl)CC(c2ccccc2)c2ccccc2)s1 [Example 144, 3-(5-{[(2,2-Diphenylethyl)-(2-chlorobenzyl)amino]methyl}thiophene-2-carbonylamino)propionic acid]"
7,> 50%,"O=C(O)CCNC(=O)c1ccc(CN(CCc2ccccc2)Cc2ccc(Oc3ccccc3)cc2)cc1 [Example 145, 3-(4-{[(2-Phenylethyl)-(4-phenoxybenzyl)amino]methyl}benzoylamino)propionic acid]"
8,> 50%,"O=C(O)CCNC(=O)c1ccc(CN(CCc2ccccc2)Cc2ccc(Oc3ccccc3)cc2)s1 [Example 146, 3-(5-{[(2-Phenylethyl)-(4-phenoxybenzyl)amino]methyl}thiophene-2-carbonylamino)propionic acid]"
9,> 50%,"Cc1ccc(CN(CCc2ccc(Cl)cc2Cl)Cc2ccc(C(=O)NCCC(=O)O)s2)cc1 [Example 147, 3-(5-{[(2,4-Dichlorophenylethyl)-(4-methylbenzyl)amino]methyl}thiophene-2-carbonylamino)propionic acid]"
10,> 50%,"O=C(O)CCNC(=O)c1ccc(CN(Cc2ccc(Cl)cc2)Cc2ccc(Cl)cc2)s1 [Example 148, 3-(5-{[Bis-(4-chlorobenzyl)amino]methyl}thiophene-2-carbonylamino)propionic acid]"
11,> 50%,"COc1ccc(CN(Cc2ccc(C(=O)NCCC(=O)O)cc2)Cc2ccc(C(C)C)cc2)cc1OC [Example 149, 3-(4-{[(3,4-Dimethoxybenzyl)-(4-isopropylbenzyl)amino]methyl}benzoylamino)propionic acid]"
12,> 50%,"COc1ccc(CN(Cc2ccc(C(C)C)cc2)Cc2ccc(C(=O)NCCC(=O)O)s2)cc1OC [Example 150, 3-(5-{[(3,4-Dimethoxybenzyl)-(4-isopropylbenzyl)amino]methyl}thiophene-2-carbonylamino)propionic acid]"
13,> 50%,"COc1ccc(CN(Cc2ccc(C(=O)NCCC(=O)O)cc2)Cc2cccc(Oc3cccc(C(F)(F)F)c3)c2)cc1OC [Example 151, 3-(4-{[(3,4-Dimethoxybenzyl)-(3-[3-trifluoromethylphenoxy]benzyl)amino]methyl}benzoylamino)propionic acid]"
14,> 50%,"COc1ccc(CN(Cc2cccc(Oc3cccc(C(F)(F)F)c3)c2)Cc2ccc(C(=O)NCCC(=O)O)s2)cc1OC [Example 152, 3-(5-{[(3,4-Dimethoxybenzyl)-(3-[3-trifluoromethylphenoxy]benzyl)amino]methyl}thiophene-2-carbonylamino)propionic acid]"
15,> 50%,"CC(C)(C)C1CCC(N(Cc2ccc(C(=O)Nc3nnn[nH]3)cc2)C(=O)Nc2ccc(Cl)cc2)CC1 (stereo not shown) [Example 159, 4-[1-(4-tert-Butylcyclohexyl)-3-(4-chlorophenyl)ureidomethyl]-N-(1H-tetrazol-5-yl)benzamide]"
16,> 50%,"CC(C)(C)C1CCC(N(Cc2ccc(C(=O)Nc3ccc4c(c3)OCCO4)cc2)C(=O)Nc2ccc(Cl)cc2)CC1 (stereo not shown) [Example 160, 4-[1-(4-tert-Butylcyclohexyl)-3-(4-chlorophenyl)ureidomethyl]-N-(2,3-dihydro-1,4-benzodioxin-6-yl)benzamide]"
17,> 50%,"CC(C)(C)C1CCC(N(Cc2ccc(C(=O)Nc3ccc4c(c3)OCCO4)cc2)C(=O)Nc2ccc(OC(F)(F)F)cc2)CC1 (stereo not shown) [Example 161, 4-[1-(4-tert-Butylcyclohexyl)-3-(4-trifluoromethoxyphenyl)ureidomethyl]-N-(2,3-dihydro-1,4-benzodioxin-6-yl)benzamide]"
18,> 50%,"CC(C)(C)C1CCC(N(Cc2ccc(C(=O)Nc3ccc(O)c([N+](=O)[O-])c3)cc2)C(=O)Nc2ccc(Cl)cc2)CC1 (stereo not shown) [Example 162, 4-[1-(4-tert-Butylcyclohexyl)-3-(4-chlorophenyl)ureidomethyl]-N-(4-hydroxy-3-nitrophenyl)benzamide]"
19,> 50%,"CC(C)(C)C1CCC(N(Cc2ccc(C(=O)Nc3ccc(O)c([N+](=O)[O-])c3)cc2)C(=O)Nc2ccc(OC(F)(F)F)cc2)CC1 (stereo not shown) [Example 163, 4-[1-(4-tert-Butylcyclohexyl)-3-(4-trifluoromethoxyphenyl)ureidomethyl]-N-(4-hydroxy-3-nitrophenyl)benzamide]"
20,> 50%,"CC(C)(C)C1CCC(N(Cc2ccc(C(=O)Nc3ncnc4[nH]ncc34)cc2)C(=O)Nc2ccc(Cl)cc2)CC1 (stereo not shown) [Example 164, 4-[1-(4-tert-Butylcyclohexyl)-3-(4-chlorophenyl)ureidomethyl]-N-(1H-pyrazolo[3,4-d]pyrimidin-4-yl)benzamide]"
21,> 50%,"CC(C)(C)C1CCC(N(Cc2ccc(C(=O)Nc3ncnc4[nH]ncc34)cc2)C(=O)Nc2ccc(OC(F)(F)F)cc2)CC1 (stereo not shown) [Example 165, 4-[1-(4-tert-Butylcyclohexyl)-3-(4-trifluoromethoxyphenyl)ureidomethyl]-N-(1H-pyrazolo[3,4-d]pyrimidin-4-yl)benzamide]"
